The values that follow are results of earlier work, collected in PMC11938273 (Journal of Chemical Information and Modeling, 2025).

*1 amine or outer side, *2 acyl side, *3 side chain or, on linkers, in order; H or OH if unused. Where a SMILES comes first, the peptide text is derived from it. Bridges are numbered along the chain shown (N, C = ends). Roman numbers before positions name the chains, in order. [ ]: non-standard residue; d: D form. Actinocin(9to1) = Cc1c2oc3c(C)ccc(C(=O)[*:1])c3nc-2c(C(=O)[*:2])c(N)c1=O; NMeV = CN[C@H](C(=O)O)C(C)C; Sar = CNCC(=O)O

For the data set the following is noted: in vivo; cited from earlier work.
As to `CN1[C@H]2CC[C@@H]1[C@@H](C(=O)OCCF)[C@@H](c1ccc(I)cc1)C2` [2-FE-beta-CIT, (1R,2S,3S,5S)-2-fluoroethyl-3-(4-iodophenyl)-8-methyl-8-azabicyclo[3.2.1]octane-2-carboxylate], the CNS status entry is “Positive”.
For `CNc1ccc(-c2nc3ccc(O)cc3s2)cc1` [6-OH-BTA-1 (PiB), 2-(4-(Methylamino)phenyl)benzo[d]thiazol-6-ol], the CNS status entry is “Positive”.
For the molecule `CNc1ccc(-c2nc3ccc(O)cc3s2)cc1` [6-meO-BTA-0, 2-(4-(Methylamino)phenyl)benzo[d]thiazol-6-ol], the CNS status result is on record as “Negative”.
Take `Cc1c2oc3c(C)ccc(C(=O)N[C@@H]4C(=O)N[C@H](C(C)C)C(=O)N5CCC[C@H]5C(=O)N(C)CC(=O)N(C)[C@@H](C(C)C)C(=O)O[C@@H]4C)c3nc-2c(C(=O)N[C@@H]2C(=O)N[C@H](C(C)C)C(=O)N3CCC[C@H]3C(=O)N(C)CC(=O)N(C)[C@@H](C(C)C)C(=O)O[C@@H]2C)c(N)c1=O` [Actinomycin D] (I: T[dV]P[Sar][NMeV] / II: T[dV]P[Sar][NMeV]; ester I:1-I:C, II:1-II:C; linker I:N-II:N via Actinocin(9to1)): the CNS status entry is listed as “Efflux transporter substrate”.
As for `O=C(c1ccc(F)cc1)C1CCN(CCn2c(=S)[nH]c3ccccc3c2=O)CC1` [Altanserin, 3-[2-[4-(4-fluorobenzoyl)piperidin-1-yl]ethyl]-2-sulfanylidene-1H-quinazolin-4-one], the CNS status entry is “Positive”.
Regarding `CN(C(=O)C(c1ccccc1)c1ccccc1)[C@H](CN1CC[C@H](O)C1)c1ccccc1` [Asimadoline, N-{(1S)-2-[(3S)-3-Hydroxy-1-pyrrolidinyl]-1-phenylethyl}-Nmethyl-2,2-diphenylacetamide], the CNS status result is reported as “Efflux transporter substrate”.
Consider `CCOC(=O)c1ncn2c1CN(C)C(=O)c1cc(N=[N+]=[N-])ccc1-2` [Azidomazenil, Ethyl-8-azido-5-methyl-6-oxo-4H-imidazo[1,5-a][1,4]benzodiazepine-3-carboxylate], for which the CNS status entry is “Positive”.
Turning to `CCCC(=O)OC1CCN(C)CC1` [BMP, 1-methylpiperidin-4-yl butyrate], the CNS status entry is recorded as “Positive”.
As to `C(=N\NC1=NCCN1)/c1c2ccccc2c(/C=N/NC2=NCCN2)c2ccccc12` [Bisantrene, N-[(E)-[10-[(E)-(4,5-dihydro-1H-imidazol-2-ylhydrazinylidene)methyl]anthracen-9-yl]methylideneamino]-4,5-dihydro-1H-imidazol-2-amine], the CNS status result was “Efflux transporter substrate”.
Take `COC(=O)[C@H]1[C@@H](c2ccc(I)cc2)C[C@@H]2CC[C@H]1N2CCF` [CIT-FE, (1R,2S,3S,5S)-methyl 8-(2-fluoroethyl)-3-(4-iodophenyl)-8-azabicyclo[3.2.1]octane-2-carboxylate]: the CNS status result is “Positive”.
Consider `CCOc1nc2cccc(C(=O)O)c2n1Cc1ccc(-c2ccccc2-c2nnn[nH]2)cc1` [Candesartan, 1-((2'-(2H-tetrazol-5-yl)-[1,1'-biphenyl]-4-yl)methyl)-2-ethoxy-1H-benzo[d]imidazole-7-carboxylic acid], for which the CNS status entry is “Negative”.
Take `CC(C)NCC(O)COc1cccc2[nH]c3ccccc3c12` (stereo not drawn) [Carazolol, 1-((9H-carbazol-4-yl)oxy)-3-(isopropylamino)propan-2-ol]: the CNS status entry was “Positive”.
Turning to `C[C@@](Cc1ccc(O)c(O)c1)(NN)C(=O)O` [Carbidopa, (2S)-3-(3,4-Dihydroxyphenyl)-2-hydrazino-2-methylpropanoic acid], the CNS status result is given as “Negative”.
On to `Cc1ccc(-c2cc(C(F)(F)F)nn2-c2ccc(S(N)(=O)=O)cc2)cc1` [Celecoxib, 4-[5-(4-Methylphenyl)-3-(trifluoromethyl)-1H-pyrazol-1-yl]benzenesulfonamide], for which the CNS status result is on record as “Negative”.
On to `CN/C(=N/CCSCc1nc[nH]c1C)NC#N` [Cimetidine, 1-Cyano-2-methyl-3-(2-{[(4-methyl-1H-imidazol5-yl)methyl]sulfanyl}ethyl)guanidine], for which the CNS status entry is “Efflux transporter substrate”.
